# US10967047B2, “Mitochondrial antiviral-signaling (MAVS) polypeptides and detection and use thereof” (University of Vermont and State Agricultural College, priority 2016, dated 2021)
# Assays:
# MAVS oligomers = biological target: T1, MAVS oligomers (Homo sapiens, UniProt Q7Z434); assay: Membrane lipid-strip blot: interaction of lipids with MAVS oligomers isolated from SLE patients; assay type: binding; settings: lipid strips exposed to 1 μg/ml MAVS oligomer from SLE patients (FIG. 15B)
# T1 construct: The strips were exposed to 1 μg/ml of MAVS oligomer isolated from SLE patients; from tissue; host or cells: SLE patient material, immunoprecipitated with anti-MAVS antibody on protein G magnetic beads
# T1 sequence (Q7Z434 whole entry): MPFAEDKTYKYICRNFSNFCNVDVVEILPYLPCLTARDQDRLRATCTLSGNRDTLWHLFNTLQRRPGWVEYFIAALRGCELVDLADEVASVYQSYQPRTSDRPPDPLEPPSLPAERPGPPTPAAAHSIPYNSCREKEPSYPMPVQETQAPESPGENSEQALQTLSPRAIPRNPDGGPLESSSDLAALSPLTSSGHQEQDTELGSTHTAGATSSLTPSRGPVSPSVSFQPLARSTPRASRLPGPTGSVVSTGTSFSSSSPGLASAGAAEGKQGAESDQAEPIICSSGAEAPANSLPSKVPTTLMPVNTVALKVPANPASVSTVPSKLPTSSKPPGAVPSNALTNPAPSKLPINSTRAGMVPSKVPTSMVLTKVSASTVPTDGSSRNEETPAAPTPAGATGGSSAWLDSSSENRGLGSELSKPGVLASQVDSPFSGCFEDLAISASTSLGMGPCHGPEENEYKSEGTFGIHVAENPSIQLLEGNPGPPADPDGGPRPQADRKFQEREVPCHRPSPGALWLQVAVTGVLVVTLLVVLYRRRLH
# Procedure: To assess MAVS oligomer interaction a plate coated with anti-phospholipid antibody was prepared and was later was saturated with purified CL. The same plate was exposed to purified and Alx488 labeled MAVS oligomers from mock or GOx treated healthy controls, or from SLE patients as previously published [Szeto, H. H., Br J Pharmacol, 2014. 171(8): p. 2029-50]. Following washing, fluorescence of captured MAVS oligomers was measured. As a control we used recombinant, purified and Alx488 labeled MAVS monomers. Results are shown in FIG. 15A with data shown as mean±SEM, with results representative of two experiments. […] Tests were performed on membrane lipid-strips (Echelon Biosciences). The strips were exposed to 1 μg/ml of MAVS oligomer isolated from SLE patients. The strips were washed with mild detergent and treated with phospholipase A2 (PLA2).
# MEFs [1] = assay: Mitochondrial transmembrane potential (ΔΨm) by FACS using TMRE in MEFs; assay type: cell-based, mouse
# Procedure: (§1) ROS generation was measured using oxidized, green-fluorescent dihydrocalcein acetoxymethylester (DHC-AM) (Life Technologies) and flow cytometry. Single-cell suspensions of MEFs were prepared and ROS was assessed with 5 μM DHC-AM staining in culture medium for 30 minutes (A. Rohnstock et al., (2007) Toxicol in Vitro 21, 1552-1562). 25 nM of cationic cell permeant dye tetramethylrhodamine ethylester (TMRE; Life Technologies) (R. C. Scaduto, Jr. et al., (1999), Biophysical journal 76, 469-477) were used to measure ΔΨm. Additionally, MitoSox Red and MitoTracker Deep Red (Life Technologies) were used to measure mitochondrial ROS and mitochondrial mass, respectively. Flow cytometry was carried out on an LSRII (BD Biosciences), and FlowJo software (Tree Star) was used for analysis.
# Drp1 = assay: Phosphorylated Drp1 (Drp1 616p) at purified mitochondria, densitometry normalized to Cox IV; assay type: cell-based; settings: 5′-ppp-RNA 1 μg/ml or GOx (FIG. 14A-B)
# Procedure: To activate MAVS commercially available 5′-ppp-RNA was used at a concentration of 1 μg/ml, which activates RIG-I helicase. As an alternative GOx was used as previously described [Szeto, H. H., Br J Pharmacol, 2014. 171(8): p. 2029-50]. Mitochondria were purified by anti-Tom22 magnetic beads as previously described [Perl, A., et al., Int Rev Immunol, 2004. 23(3-4): p. 293-313]. Changes in the level of Drp1^616p at mitochondria were determined by densitometry, which was normalized to the level of Cox IV (FIG. 14A-B).
# MEFs [2] = assay: ROS generation by FACS using DHC in MEFs; assay type: cell-based, mouse
# Procedure: as §1
# MEFs [3] = assay: Oxygen consumption rate (OCR), Seahorse XF-24 extracellular flux analyzer, MEFs; assay type: cell-based, mouse; settings: MAVS-WT MEFs (FIG. 1I, J)
# Procedure: Real-time analysis of OCR and ECAR was performed with an XF-24 Extracellular Flux Analyzer (Seahorse Bioscience). Metabolic profiles were measured under basal conditions in non-buffered DMEM (Sigma) containing 25 mM glucose, 2 mM L glutamine, and 1 mM sodium pyruvate, in response to 1 μM oligomycin, 0.5 μM FCCP, and 1 μM rotenone/1 μM antimycin A (M. B. de Moura et al., (2014) Methods in molecular biology 1105, 589-602). Total ATP was measured with the ATP Lite Kit (Perkin Elmer), and the ATP/ADP ratio was determined using the bioluminescence ADP/ATP Ratio Assay Kit from Sigma.
# MAVS [4] = assay: MAVS expression and oligomerization in the mitochondrial fraction of BMDCs treated with free dye; assay type: cell-based, mouse; settings: increasing concentrations of free Alx488 dye (FIG. 7G)
# MAVS [5] = assay: MAVS oligomerization in MEFs (semi-denaturing gel electrophoresis, immunoblot, densitometry); assay type: cell-based, mouse
# Procedure: 5′ triphosphate double-stranded RNA (5′-ppp-dsRNA), a synthetic ligand for RIG-I, was purchased from InVivoGen and used at a concentration of 1 μg/mL. Mitochondria-targeted antioxidant MitoQ and the mitochondria-targeted superoxide generator MitoPQ, were gifts of M. Murphy (G. F. Kelso et al., (2001) The Journal of biological chemistry 276, 4588-4596). The control reagent TPP was purchased from Sigma. Reagents were added to cells at concentrations as indicated. GOx was purchased from Sigma and added to cultured cells at a final concentration of 0.1 U/mL. Iodoacetamide was from Thermo Fisher, and used at a final concentration of 100 μM.
# Cultured MEFs or human PBMCs were lysed in a sample buffer containing 2% SDS and insoluble cell fragments were removed by centrifugation. Plasma samples derived from SLE patients were collected and stored at −20° C. until gel electrophoresis. BCA protein assay (Thermo Scientific) was used to determine protein concentrations in all samples were resolved with SDS-PAGE under denaturing conditions. Gels were transferred to PVDF membranes using a Trans-Blot Turbo Transfer System (BioRad).
# (§2) SDD-AGE was performed according to a published protocol with minor modifications (Alberti et al., (2009) Cell 137, 146-158). In brief, mitochondria were resuspended in sample buffer (0.5×TBE, 10% glycerol, 2% SDS, and 0.0025% bromophenol blue) and loaded onto a vertical 1.5% agarose gel. After electrophoresis in the running buffer (1×TBE and 0.1% SDS) for 35 min with a constant voltage of 75 V at 4° C., proteins were transferred to PVDF membranes using a Trans-Blot Turbo Transfer System (BioRad) for immunoblotting.
# PVDF membranes were blocked in 5% solution of nonfat powdered milk in Tris-buffered saline. Antibodies used were specific for MAVS and Actin (Santa Cruz); RIPK1 and TRAF2 (BD Biosciences); TANK, TRADD, RIG-I, and GAPDH (Cell Signaling); MDAS and COX4 (Abcam), Alexa 488 (Life Technologies), and IRF3 (Thermo Fisher), respectively. Immunoreactive proteins were visualized using HRP-labeled conjugates (Jackson Immuno Research) and developed using Clarity Western ECL substrate (Biorad). Chemiluminescence was detected and recorded using a Biorad Chemidoc instrument. Densitometric measurements were performed in Image Lab image acquisition and analysis software (Biorad).
# MAVS [6] = assay: MAVS oligomerization in human PBMC and plasma (semi-denaturing agarose gel electrophoresis); assay type: cell-based
# Procedure: MAVS-deficient and matching WT MEFs, gift of Z. J. Chen (Z. J. Chen et al. (2005) Cell 122, 669-682), were maintained in Dulbecco's modified Eagle's medium (DMEM) (Hyclone), supplemented with 10% heat-inactivated fetal calf serum (FCS) (Hyclone), 100 mM L-glutamine (Cellgro Mediatech), and 10,000 units/mL penicillin/10 mg/mL streptomycin sulfate (Life Technologies). C57BL6 or B6; 129-Mavstm1Zjc/J mice (The Jackson Laboratory, Bar Harbor, Me.) were maintained at the University of Vermont under a protocol approved by the Institutional Animal Care and Use Committee. Murine BMDCs were prepared as described by Inaba et al. (K. Inaba et al., (1992) Journal of Experimental Medicine 176, 1693-1702). In brief, cells derived from femur bone marrow were cultured at a density of 5×10^5/mL in 10-cm plates in RPMI 1640 (HyClone), supplemented with 5% heat-inactivated FCS, 100 mmol L-glutamine, 100 mmol sodium pyruvate, 10,000 units/mL penicillin/10 mg/mL streptomycin sulfate, 5×10^−5 mol 2-mercaptoethanol (Sigma, St. Louis, Mo.), and 10 μg/mL GM-CSF (Life Technologies). Human subjects were enrolled under a protocol approved by the University of Vermont Institutional Review Board. Samples from 17 SLE patients fulfilling the American College of Rheumatology diagnostic criteria were studied (E. M. Tan et al., (1982) Arthritis and Rheumatism 25, 1271-1277). 16 out of 17 patients were female, and the age of study participants was 47±3. The disease activity was assessed by the SLE disease activity index (SLEDAI) scores, ranging from 0 to 10 (C. Bombardier et al., (1992) Arthritis and Rheumatism 35, 630-640). Upon informed consent, primary human PBMCs were obtained from heparinized whole-blood samples from SLE patients. Control PBMCs were generated from age-, sex-, and ethnicity-matched healthy subjects. PBMCs were isolated using standard Ficoll gradient centrifugation as previously described (R. Mallone et al., (2011) Clin. and Exp. Immunol. 163, 33-49). Cells were either used immediately to prepare lysates for immunoblotting or cultured at a density of 5×10^5/mL in a 12-well culture plate with RPMI 1640 (HyClone), supplemented with 5% heat-inactivated FCS, 100 mmol L-glutamine, 100 mmol sodium pyruvate, and 10,000 units/mL penicillin/10 mg/mL streptomycin sulfate. Enriched monocytes from PBMCs were used to prepare hDCs using negative magnetic bead selection (Miltenyi), and were subsequently cultivated for 6 d in 10 μg/mL GM-CSF and 500 U/mL IL-4. All cells were maintained in a humidified chamber at 37° C. and 5% CO2.
# as §2
# PVDF membranes were blocked in 5% solution of nonfat powdered milk in Tris-buffered saline. Antibodies used were specific for MAVS and Actin (Santa Cruz); RIPK1 and TRAF2 (BD Biosciences); TANK, TRADD, RIG-I, and GAPDH (Cell Signaling); MDAS and COX4 (Abcam), Alexa 488 (Life Technologies), and IRF3 (Thermo Fisher), respectively. […] Chemiluminescence was detected and recorded using a Biorad Chemidoc instrument. […]
# [7] = Total thiol concentration of PBMC and plasma homogenates; set-up: species or system human
# MEFs [8] = assay: IFN-I and IL-6 cytokine secretion by ELISA in MEF culture supernatants; assay type: cell-based, mouse; settings: MAVS-WT MEFs
# Procedure: ELISA was used to measure cytokine concentration in supernatant from cultured MEFs and BMDCs, and in sera of SLE patients and healthy control subjects. For assays, samples were centrifuged and IFN-β and IL-6 levels were measured in triplicate using murine or human ELISA kits according to the manufacturer's instructions. (PBL Biosciences). The fold change in IFN-I or IL-6 cells was calculated by directly comparing mock versus virus or chemical inducer of ROS.
# MEFs [9] = assay: Cell death by FACS using live-dead stain; assay type: cell-based, mouse; settings: MitoPQ at the doses used (1 to 10 nM) (FIG. 2I)
compound,measurement,setting,value
cardiolipin [CL],interaction with MAVS oligomers,MAVS oligomers,significant interaction
5′ triphosphate double-stranded RNA [5′-ppp-RNA],ΔΨm induced by the substance,"MEFs [1]; MAVS-WT MEFs, not observed in MAVS-KO (FIG. 1B, 2D)",increased
same,level of phosphorylated Drp1 at mitochondria after MAVS activation,Drp1,lower levels of phosphorylated Drp1 at mitochondria
same,ROS after transfection,"MEFs [2]; MAVS-WT MEFs, initial 12 h, 1 μg 5′-ppp-RNA (FIG. 1A)",increased
same,basal OCR versus mock-treated cells,MEFs [3],significantly lower basal OCR
"N=c1ccc2c(-c3ccc(C(=O)O)cc3C(=O)O)c3ccc(N)c(S(=O)(=O)O)c3oc-2c1S(=O)(=O)O [Alx488, Alexa Fluor 488]",MAVS expression or oligomerization with free fluorophore,MAVS [4],did not lead to increased MAVS expression or oligomerization
"OCCS [β-Me, β-mercaptoethanol]",reversal of GOx-induced MAVS oligomerization,MAVS [5]; cell media supplemented with β-Me (FIG. 2A),reversible
same,reversal of SINV-induced MAVS oligomerization,"MAVS [5]; cell media supplemented with β-Me, SINV infection (FIG. 2A)",only a portion of the MAVS oligomers were reducible
same,mitochondrial hyperpolarization in GOx-treated cells,"MEFs [1]; media supplemented with β-Me, GOx (FIG. 2D)",prevented mitochondrial hyperpolarization
same,GOx-induced MAVS oligomerization in PBMCs after pretreatment,"MAVS [6]; healthy-donor PBMCs pretreated with MitoQ or grown in presence of β-Me, then GOx (FIG. 4A)",MAVS oligomerization did not occur
CCCCCCCCCC[P+](c1ccccc1)(c1ccccc1)c1ccccc1 [dTPP],MAVS oligomerization after pretreatment,MAVS [5]; MEFs pretreated (100 μM) before GOx or SINV (FIG. 3A),did not demonstrate reversal of MAVS oligomerization
NC(=O)CI [iodoacetamide],MAVS oligomers with thiol blocking during homogenization,MAVS [6]; cells homogenized in buffer with 100 μM iodoacetamide after GOx or SINV (FIG. 9),did not result in a decrease in MAVS oligomers
same,detection of MAVS oligomers in SLE cells or plasma with thiol blocking,MAVS [6]; iodoacetamide added to SLE PBMC and plasma samples (FIG. 9),did not decrease the detection of MAVS oligomers
same,"reduction of total thiol concentration, PBMCs",[7]; PBMC homogenates (FIG. 9),80%
same,"reduction of total thiol concentration, plasma",[7]; plasma homogenates (FIG. 9),94%
"C[n+]1ccc(-c2cc[n+](CCCCCCCCCC[P+](c3ccccc3)(c3ccccc3)c3ccccc3)cc2)cc1.[I-].[I-].[I-] [MitoPQ, MitoParaquat]",induction of MAVS oligomerization without viral infection,"MAVS [5]; MEFs, substance alone (MitoPQ 1 to 10 nM, FIG. 2H; GOx, FIG. 2A)",MAVS oligomerization
same,IFN-I secretion induced by the substance,"MEFs [8]; not observed in MAVS-KO (FIG. 2E, 2J)",significant increase
same,IL-6 secretion induced by the substance,"MEFs [8]; not observed in MAVS-KO (FIG. 2F, 2K)",significant increase
same,superoxide within mitochondria / ROS,"MEFs [2]; MEFs, MitoPQ 1 to 10 nM (FIG. 2G)",increased amount of superoxide within mitochondria
same,cell death,MEFs [9],without causing significant cell death
